The values below are quoted from earlier work in patent publication US20160274087A1, “SCREENING ASSAY FOR AGENTS THAT INFLUENCE BETA CELL NUMBER AND/OR PHENOTYPE” (VRIJE UNIVERSITEIT BRUSSEL, priority 2013, published 2016).

For the data set, the target named is T1, mineralocorticoid receptor (MR) (Homo sapiens, UniProt P08235).
T1 sequence (P08235 1-984): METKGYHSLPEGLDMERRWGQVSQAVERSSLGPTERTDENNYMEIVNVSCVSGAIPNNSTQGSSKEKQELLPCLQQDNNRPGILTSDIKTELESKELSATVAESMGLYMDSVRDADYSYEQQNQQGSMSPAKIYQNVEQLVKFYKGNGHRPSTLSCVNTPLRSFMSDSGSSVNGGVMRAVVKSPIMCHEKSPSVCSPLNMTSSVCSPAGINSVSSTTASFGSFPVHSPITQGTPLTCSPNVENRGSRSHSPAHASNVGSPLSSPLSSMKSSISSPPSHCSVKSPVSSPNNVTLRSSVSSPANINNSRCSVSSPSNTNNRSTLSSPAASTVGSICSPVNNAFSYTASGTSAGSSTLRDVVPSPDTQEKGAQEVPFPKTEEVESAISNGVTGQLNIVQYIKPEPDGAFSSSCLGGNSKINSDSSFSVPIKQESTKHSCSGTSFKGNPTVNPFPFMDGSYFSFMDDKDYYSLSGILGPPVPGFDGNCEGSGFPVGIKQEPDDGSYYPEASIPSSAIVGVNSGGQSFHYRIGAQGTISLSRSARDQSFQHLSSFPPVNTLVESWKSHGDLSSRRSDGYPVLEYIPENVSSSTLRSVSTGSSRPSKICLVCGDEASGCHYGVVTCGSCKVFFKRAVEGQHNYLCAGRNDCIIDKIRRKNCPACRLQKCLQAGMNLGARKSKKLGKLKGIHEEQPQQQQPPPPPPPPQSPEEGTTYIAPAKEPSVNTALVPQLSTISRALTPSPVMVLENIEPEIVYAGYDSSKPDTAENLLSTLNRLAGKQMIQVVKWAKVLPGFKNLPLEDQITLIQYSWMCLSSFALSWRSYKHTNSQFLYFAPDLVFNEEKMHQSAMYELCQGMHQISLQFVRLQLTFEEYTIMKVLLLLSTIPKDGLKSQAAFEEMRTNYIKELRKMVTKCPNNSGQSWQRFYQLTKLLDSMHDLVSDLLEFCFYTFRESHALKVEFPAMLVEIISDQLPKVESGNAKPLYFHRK
The settings on record: cited from earlier work.

`C[C@]12CCC(=O)C=C1CC[C@@H]1[C@@H]2[C@@H](O)C[C@@]2(C)[C@H]1CC[C@]2(O)C(=O)CO` [Hydrocortisone, hydrocortisone]: the “Relative Potencies MR” value is 1.
